According to patent publication US5504244A, “Alkylarylketo acids” (Boehringer Ingelheim Pharmaceuticals, Inc., priority 1993, dated 1996):
Where two headings read alike, the source gives them in different places.

Legend:
Format in all cases: cell-based
[1] = test system: 5-HETE biosynthesized by glycogen-stimulated polymorphonuclear leucocytes (PMNs); assay: Hydroxyacid Profile Assay (HPA): inhibition of 5-HETE synthesis in glycogen-elicited rabbit PMNs; details: Oryctolagus cuniculus, Leucocyte; for inhibition at 100 µM: read-out: Percent Inhibition (100 μM); for IC50: read-out: IC50 (50% inhibition of 5-HETE synthesis)
Experimental: As previously noted 5-HETE biosynthesis serves as a marker for arachidonic acid metabolism via the 5-lipoxygenase pathway which produces (poly)hydroxyeicosatetraenoic acids and the potent bronchoconstrictor and vasoactive leukotrienes LTC4, LTD4 and LTE4.
Buffer A (8.70 g NaCl; 0.27 g KCl; 0.42 g Na2 HPO4; 0.76 g KH2 PO4; and 1.00 g dextrose per liter H2 O; pH 7.0) (0.325 ml) is introduced into each of a battery of screwtop culture tubes. Then, a solution of a compound (0.100 ml) to be assayed is dispensed into individual tubes. Assays are performed in duplicate at 100 μM and 10 μM concentrations. Control tubes receive Buffer A (0 100 ml) in lieu of compound. Next, rabbit PMNs (2×10^7 cells/tube; 4×10^7cells/ml) (0.500 ml) are added to each tube. The rabbit PMN's used are elicited with glycogen and made into a preparation substantially as described by F. Hirata. et al (1979) Proc. Natl. Acad. Sci. USA, 76, 2640-2643. The tubes are vortexed and preincubated in a shaking 37° C. water bath for 15 minutes.
Thereafter, the tubes are removed from the water bath and calcium ionophore solution (400 μg/ml A-23187; Sigma Chemical Co., St. Louis, Mo.) (0.025 ml), ^14 C-arachidonic acid (0.25 μCi in 0.025 ethanol; New England Nuclear Products, Boston, Mass.) (0.025 ml) and calcium chloride solution (CaCl2.2H2 O ); 105.8 mg/10 […]) (0.025 ml) are added in that order. The tubes are vortexed and returned to the water bath for 30 minutes. The reaction is then terminated by the addition of HCl (0.8N, 0.025 ml).
Extraction and concentration of ^14 C-labeled 5-HETE is performed as follows. First, solution containing 2 parts ethyl acetate, 3 parts CH2 Cl2 and 0.01 ml unlabeled arachidonic acid is added (5.01 ml) to each tube. The tubes are capped and briefly vortexed. The contents of each tube is poured into a polypropylene column fitted with a porous polyethylene disc and Whatman phase separation filter paper. The organic phase is collected by gravity filtration into a conical centrifuge tube, While the aqueous phase is retained in the column by the phase separation paper. Each culture tube is rinsed once with the EtOAc:CH2 Cl2 solution (1.0 ml) and the wash added to the column. The organic phase is concentrated to (0.5 ml) using a Savant Speed Vac concentrator (Savant Instruments, Inc., Hicksville, N.Y.).
After concentration of the organic phase, the tubes are vortexed and stored covered on ice. An aliquot (0.01 ml) is then removed for liquid scintillation counting in a Beckman LS7500 Liquid Scintillation Counter (Beckman Instruments Corp., Fullerton, Calif.). Based on the count, the number of μl containing 1×10^5 cpm is calculated. This volume is applied to a silica gel covered glass plate in a 10 mm streak. The remaining fluid in the tube is measured via syringe and noted.
The TLC plate is placed in a chromatography chamber containing the following solvent system: CHCl3 :MeOH:HOAc:H2 O (v/v;90: 9:1:0.65). The plate is then air dried and counted on a Berthold Linear TLC Analyzer (Berthold Instruments, Inc., Pittsburgh, Pa.) for 30 minutes per lane if a dose response curve had been run, or for 5 min per lane if drug screening had been done. The integrated area of the 5-HETE band for each compound is converted to percent of control and analyzed. The percent inhibition at 100 μM compound concentration and the concentration (μM) which produces a 50% inhibition of 5-HETE synthesis (IC50), are determined for those compounds described in Examples 1-36, and are reported in Table 1 .

[2] = test system: guinea pig ileal strips; assay: Modified Schultz-Dale Assay: inhibition of antigen-induced anaphylactic contraction of passively sensitized ileal strips; details: Cavia porcellus, **tested at 20 μg/ml
[3] = test system: guinea pig ileal strips; assay: as above; details: Cavia porcellus; for IC50: value in parentheses
Experimental: In the classic Schultz-Dale assay, guinea pigs are sensitized with a known immunogen or passively sensitized with guinea pig antiserum to the immunogen, strips of ilea are recovered, and the extent of their contraction in response to a challenge exposure to the same antigen is observed as a measure of anaphylactic response. The experiments described here follow this same procedure while exposing the ileal strips to test compound before exposure to antigen challenge (preincubation) and, in some strips, also after antigen challenge (postincubation).
The male Hartley strain guinea pigs (450-650 g) whose ilea are used in this Schultz-Dale assay are passively sensitized with IgE antiovalbumin antiserum as follows. The antiserum is developed in another group of similar guinea pigs as described in Graziano, et al., J. Immunol. 127:1067-1070 (1981) and pooled. The test animals are then each passively sensitized by subcutaneous injection of the pooled antiserum (1 ml).
About 2-7 days after sensitization, the guinea pigs are sacrificed and the terminal ilea are removed. They are cut into strips (6 cm) and positioned in tissue baths (5 ml) of Tyrode's solution with atropine (1 μg/ml) at 37° C. One end of each strip is fixed to an immobile post and the other movably mounted to a Grass Ft. 0.03 linear force displacement transducer and a Grass Model 7 polygraph. The tension is set (at 1 gram) and the tissue is allowed to equilibrate (10 minutes). Tissue viability is tested by establishing a consistent response to histamine (0.5 μg/ml). After several histamine-induced contractions, mepyramine (1 μg/ml) is added to inhibit any contractions due to the anaphylactic release of endogenous histamine.
A minimum of 3 animals are used for each compound tested and, of the 6 strips from each animal, 2 strips are incubated (preincubation) with a test compound (final concentration 75 μM), 2 with an appropriate reference standard (BW-755C at 75 μM) and 2 with saline solution (control) for a predetermined period (5 minutes). After this initial incubation period, ovalbumin (100 μg/ml) is added to each bath and the resulting anaphylactic contraction measured. The data are recorded as of tension produced by the tissue in excess of the 1 gram tension that was initially set. At the peak of the contraction, a dose of the same test compound (75 μM) is added (postincubation) to one control strip and reference standard (FPL-55712 at 1.9 μM). The strips are monitored (1 minute) and any effect on the established contraction is recorded as described above.
Two types of data are derived from the above protocol. First, pre-antigen inhibition (prechallenge) is expressed as the percent inhibition in each of the strips preincubated with test compound measured against the averaged contractions of the two control strips. Prechallenge inhibition by the reference standard is also determined in each experiment as a positive control. The reference used consistently gives 60-80% inhibition. Second, post-antigen inhibition (postchallenge) is determined by measuring the decrease in anaphylactic contraction of a control strip produced by adding either a test compound or standard at the peak of the contraction. The reference used consistently gives 70-90% inhibition. The data in each experiment, therefore, consists of 2 prechallenge and 1 postchallenge value for both test compound and standard.

[4] = test system: 5-HETE biosynthesized by glycogen-stimulated polymorphonuclear leucocytes (PMNs); assay: Hydroxyacid Profile Assay (HPA): inhibition of 5-HETE synthesis in glycogen-elicited rabbit PMNs; details: Oryctolagus cuniculus, Leucocyte, read-out: Percent Inhibition; for inhibition at 50 µM: **tested at 50 μM
[5] = added at peak of contraction after antigen, read-out: Postchallenge mean percent inhibition
[6] = preincubation before ovalbumin antigen, read-out: Prechallenge mean percent inhibition
[7] = added at peak of contraction after antigen, read-out: Postchallenge IC50
[8] = preincubation before ovalbumin antigen, read-out: Prechallenge IC50

SMILES	inhibition at 20 µg/mL [2, 5] [%]	inhibition at 20 µg/mL [2, 6] [%]	inhibition at 75 µM [3, 5] [%]	inhibition at 75 µM [3, 6] [%]	inhibition at 100 µM ([1]; 5-HETE synthesis) [%]	also measured
Cc1ccc(C(=O)CCCCC(=O)O)cc1 [Example 21, 5-(4-Methylbenzoyl)pentanoic acid]	11	29				inhibition at 10 µM ([1]; at 10 μM, 5-HETE synthesis, read-out: Percent Inhibition): 0%
CCCCCCCc1ccc(C(=O)CCCCCC(=O)O)cc1 [Example 20, 6-(4-n-Heptylbenzoyl)hexanoic acid]			3	57		inhibition at 50 µM [4]: 60%
CCCCCc1ccc(C(=O)CCC(=O)O)cc1 [Example 4, 3-(4-n-Pentylbenzoyl)propanoic acid]	49	65			65	
CCCCCCCc1ccc(C(=O)c2ccc(C(=O)O)cc2)cc1 [Example 14, 4-(4-n-Heptylbenzoyl)benzoic acid]			16	44		inhibition at 50 µM [4]: 87%
CCCCCCCc1ccc(C(=O)CCCCC(=O)O)cc1 [Example 1, 5-(4-n-Heptylbenzoyl)pentanoic acid]	68	81			78	IC50 [1]: 30 µM; IC50 [3, 7]: 48 µM; IC50 [3, 8]: 27 µM
CCCCCCOc1ccc(C(=O)CCCCC(=O)O)cc1 [Example 12, 5-(4-n-Hexyloxybenzoyl)pentanoic acid]	18	70			75	
CCCCCc1ccc(C(=O)CCCCC(=O)O)cc1 [Example 2, 5-(4-n-Pentylbenzoyl)pentanoic acid]	58	81			59	IC50 [1]: 70 µM; IC50 [3, 7]: > 75 µM; IC50 [3, 8]: 35 µM
CCCCCCCCCc1ccc(C(=O)[C@@H]2CCCC[C@H]2C(=O)O)cc1 (relative stereo) [Example 32, Trans-2-(4-n-nonylbenzoyl)cyclohexane-l-carboxylic acid]			20	92	85	
O=C(O)CCCC(=O)c1ccccc1 [Example 22, 4-Benzoylbutanoic acid, reference compound]	11	0				inhibition at 1000 µM ([4]; at 1000 μM): 0%
CCCCCCCc1ccc(C(=O)CC(C)(C)CC(=O)O)cc1 [Example 24, 4-(4-Heptylbenzoyl)-3,3-dimethylbutanoic acid]			43	84	51	IC50 [3, 7]: 40 µM; IC50 [3, 8]: 26 µM
Cc1ccc(C(=O)c2cccc(C(=O)O)c2)c(O)c1 [Example 30, 3-(2-Hydroxy-4-methylbenzoyl)benzoic acid]			6	26	47	
CCCCCCCCCCCCCCc1ccc(C(=O)CCCCC(=O)O)cc1 [Example 11, 5-(4-n-Tetradecylbenzoyl)pentanoic acid]	14	1			76	
CCCCCCCc1ccc(C(=O)c2cccc(C(=O)O)c2)cc1 [Example 16, 3-(4-n-heptylbenzoyl)benzoic acid]			63	86	75	IC50 [1]: 4 µM; IC50 [3, 7]: 57 µM; IC50 [3, 8]: 12 µM
CCCCCCCCCc1ccc(C(=O)CCCCC(=O)O)cc1 [Example 9, 5-(4-n-Nonylbenzoyl)pentanoic acid]	2	33			79	
CCCCCc1ccc(C(=O)CCCC(=O)O)cc1 [Example 3, 4-(4-n-Pentylbenzoyl)butanoic acid]	47	65			0	
CCCCCCCc1ccc(C(=O)CCCCC(=O)O)cc1N [Example 8, 5-(3-Amino-4-n-heptylbenzoyl)pentanoic acid]			48	94	47	IC50 [3, 7]: > 75 µM; IC50 [3, 8]: 37 µM
CCCCCCCCCCc1ccc(C(=O)CCCCC(=O)O)cc1 [Example 10, 5-(4-n-Decylbenzoyl)pentanoic acid]	11	7			88	
